Reference: US7563825B1, “Modulation of beta-catenin coactivator interactions to effect stem cell growth or differentiation” (Choongwae Pharma Corporation, priority 2005, dated 2009)
Entries after “also recorded” stand apart in the source; their conditions may differ.

How the values were obtained:
β-catenin/CBP = β-catenin/CBP (Homo sapiens, UniProt Q92793); conditions: CBP arm of the Wnt pathway; cited from earlier work
cancer cells = conditions: cited from earlier work
C2C12 myoblasts = assay: Differentiation of C2C12 myoblasts; type: cell-based; conditions: 10 μM ICG-001, compared to differentiation medium or growth medium (FIGS. 3, 4)
Experimental: FIG. 4 illustrates that differentiation of C2C12 myeloblasts is induced by 10 μM ICG-001 as compared to differentiation medium.
(§1) From our chemogenomic studies with the small molecule inhibitor of the β-catenin/CBP interaction and additional gene expression profiling, we have developed a model that describes how differential coactivator usage in Wnt signaling controls proliferation vs. differentiation. The critical feature of this model is that the CBP arm (FIG. 2, left side) of the pathway is essential for proliferation without differentiation, for example in cancer or stem cells, whereas the p300 arm (FIG. 2, right side) is critical for differentiation, with limited proliferation.

3T3-L1 preadipocytes = assay: Differentiation of 3T3-L1 preadipocytes; type: cell-based
Excerpt: as §1

Sequence of β-catenin/CBP (Q92793 whole entry): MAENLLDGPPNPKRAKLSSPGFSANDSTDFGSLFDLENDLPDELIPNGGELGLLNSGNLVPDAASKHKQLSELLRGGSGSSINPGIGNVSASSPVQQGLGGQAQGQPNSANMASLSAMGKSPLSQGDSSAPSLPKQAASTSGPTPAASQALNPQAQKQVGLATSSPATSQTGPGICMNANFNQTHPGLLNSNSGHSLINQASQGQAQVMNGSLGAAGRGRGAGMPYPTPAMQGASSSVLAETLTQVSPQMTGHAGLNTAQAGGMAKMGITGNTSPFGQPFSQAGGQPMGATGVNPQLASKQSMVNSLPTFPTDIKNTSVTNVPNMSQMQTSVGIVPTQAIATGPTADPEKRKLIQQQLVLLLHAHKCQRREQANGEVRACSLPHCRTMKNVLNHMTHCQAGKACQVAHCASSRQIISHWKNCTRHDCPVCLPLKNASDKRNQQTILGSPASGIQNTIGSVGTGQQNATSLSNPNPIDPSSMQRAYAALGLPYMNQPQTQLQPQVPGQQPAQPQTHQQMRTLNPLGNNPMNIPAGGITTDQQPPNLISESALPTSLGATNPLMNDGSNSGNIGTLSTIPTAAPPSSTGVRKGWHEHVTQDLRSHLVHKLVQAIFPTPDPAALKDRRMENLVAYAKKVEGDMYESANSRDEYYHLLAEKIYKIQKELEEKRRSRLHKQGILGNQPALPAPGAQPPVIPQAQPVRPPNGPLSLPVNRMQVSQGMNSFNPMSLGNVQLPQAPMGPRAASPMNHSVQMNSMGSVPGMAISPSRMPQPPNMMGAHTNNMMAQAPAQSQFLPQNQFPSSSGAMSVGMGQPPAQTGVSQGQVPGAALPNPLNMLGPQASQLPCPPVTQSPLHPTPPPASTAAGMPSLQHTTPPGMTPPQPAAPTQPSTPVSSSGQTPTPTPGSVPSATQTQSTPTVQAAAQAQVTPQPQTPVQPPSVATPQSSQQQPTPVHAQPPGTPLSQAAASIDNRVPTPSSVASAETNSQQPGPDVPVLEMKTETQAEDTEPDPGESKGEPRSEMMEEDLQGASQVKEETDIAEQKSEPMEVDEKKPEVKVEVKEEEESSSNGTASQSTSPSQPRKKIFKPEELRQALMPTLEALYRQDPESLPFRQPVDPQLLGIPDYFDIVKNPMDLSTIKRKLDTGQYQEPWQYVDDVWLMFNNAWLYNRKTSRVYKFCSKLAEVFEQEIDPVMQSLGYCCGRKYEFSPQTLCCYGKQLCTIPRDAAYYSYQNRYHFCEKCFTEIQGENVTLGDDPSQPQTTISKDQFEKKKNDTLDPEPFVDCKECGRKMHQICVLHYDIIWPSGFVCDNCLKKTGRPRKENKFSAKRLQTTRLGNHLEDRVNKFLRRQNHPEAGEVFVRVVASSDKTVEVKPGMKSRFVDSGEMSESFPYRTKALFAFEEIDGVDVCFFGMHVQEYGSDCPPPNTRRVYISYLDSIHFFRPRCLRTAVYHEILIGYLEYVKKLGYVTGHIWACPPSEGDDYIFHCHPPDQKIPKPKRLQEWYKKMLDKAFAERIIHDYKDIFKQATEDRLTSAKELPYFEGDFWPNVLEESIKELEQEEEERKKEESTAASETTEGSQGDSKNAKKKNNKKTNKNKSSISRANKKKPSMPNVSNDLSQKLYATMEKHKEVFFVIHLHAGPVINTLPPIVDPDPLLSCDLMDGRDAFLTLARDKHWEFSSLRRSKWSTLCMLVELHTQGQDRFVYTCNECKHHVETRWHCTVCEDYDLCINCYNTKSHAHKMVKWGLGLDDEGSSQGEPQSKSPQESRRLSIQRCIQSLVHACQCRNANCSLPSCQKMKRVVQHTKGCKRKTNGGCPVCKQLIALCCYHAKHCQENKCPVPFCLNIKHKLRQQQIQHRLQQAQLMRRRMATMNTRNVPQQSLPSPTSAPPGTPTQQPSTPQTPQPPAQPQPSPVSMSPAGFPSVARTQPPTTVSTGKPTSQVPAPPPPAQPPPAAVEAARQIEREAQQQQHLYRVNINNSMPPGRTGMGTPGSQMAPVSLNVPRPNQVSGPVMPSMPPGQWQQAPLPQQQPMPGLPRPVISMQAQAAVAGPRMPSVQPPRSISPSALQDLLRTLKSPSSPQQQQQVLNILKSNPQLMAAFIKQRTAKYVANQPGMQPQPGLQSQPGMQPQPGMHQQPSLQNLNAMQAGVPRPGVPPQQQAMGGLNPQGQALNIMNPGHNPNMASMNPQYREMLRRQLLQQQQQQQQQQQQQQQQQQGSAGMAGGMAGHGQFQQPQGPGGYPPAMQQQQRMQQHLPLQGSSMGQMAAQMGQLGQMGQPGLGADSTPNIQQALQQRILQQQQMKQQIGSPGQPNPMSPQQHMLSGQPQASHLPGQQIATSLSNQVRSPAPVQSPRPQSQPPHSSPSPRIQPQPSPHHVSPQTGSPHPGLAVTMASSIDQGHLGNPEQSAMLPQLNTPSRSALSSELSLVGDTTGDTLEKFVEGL

Question: Which “inhibition of β-catenin/CBP dependent transcription” value (β-catenin/CBP) does the source give for `O=C1[C@H](Cc2ccc(O)cc2)N2C(=O)CCN(C(=O)NCc3ccccc3)[C@H]2CN1Cc1cccc2ccccc12` [ICG-001] here?
Answer: specifically inhibits

Question: And the “programmed cell death in cancer cells” value (cancer cells)?
Answer: selectively inducing programmed cell death

Question: And the “differentiation of C2C12 myeloblasts (myoblasts)” value (C2C12 myoblasts)?
Answer: induces the differentiation; also recorded: induced; also recorded: inducing the differentiation

Question: And the “differentiation of non-tumorigenic precursor cells, 3T3-L1 preadipocytes” value (3T3-L1 preadipocytes)?
Answer: inducing the differentiation
